Measurements taken from patent publication US7326790B2, “Diphenylisoxazole compounds and hydro isomers thereof” (Rigel Pharmaceuticals, Inc., priority 2003, dated 2008).

tested on: HCV replicon (5-2 Luc replicon-comprising cells); test: HCV replicon assay (luciferase); assay type: cell-based; conditions: Hepatitis C virus; 5-2 Luc replicon cells, 24 hours with compound, luciferase activity
Excerpt: In one embodiment, the inhibitory activity of the compounds can be confirmed in a replicon assay that assesses the ability of a test compound to block or inhibit HCV replication in replicon cells. One example of a suitable replicon assay is the liver cell-line Huh 7-based replicon assay described in Lohmann et al., 1999, Science 285:110-113. A specific example of this replicon assay which utilizes luciferase translation is provided in the Examples Section. In one embodiment of this assay, the amount of test compound that yields a 50% reduction in translation as compared to a control cell (IC50) may be determined.
The inhibitory activity of certain exemplary compounds of the invention was confirmed using an HCV replicon assay. The HCV replicon can include such features as the HCV 5′ untranslated region including the HCV IRES, the HCV 3′ untranslated region, selected HCV genes encoding HCV polypeptides, selectable markers, and a reporter gene such as luciferase, GFP, etc. In the assay, actively dividing 5-2 Luc replicon-comprising cells (obtained from Ralf Bartenschlager; see Lohmann et al., 1999, Science 285:110-113) were seeded at a density of between about 5,000 and 7,500 cells/well onto 96 well plates (about 90 μl of cells per well) and incubated at 37° C. and 5% CO2 for 24 hours. Then, the test compound (in a volume of about 10 μl) was added to the wells at various concentrations and the cells were incubated for an additional 24 hours before luciferase assay. Briefly, the Bright-Glo reagent was diluted 1:1 with PBS and 100 μl of diluted reagent was added to each well. After 5 min of incubation at room temperature, luciferin emission was quantified with a luminometer. In this assay, the amount of test compound that yielded a 50% reduction in luciferase activity (IC50) was determined.

Structure (SMILES) | IC50
O=C(Nc1cccc(-c2cc(-c3c(Cl)cccc3Cl)on2)c1)C(Cl)Cl [Compound 39, 2,2-Dichloro-N-[3-[5-(2,6-dichlorophenyl)-3-isoxazolyl]phenyl]Acetamide] | < 10 µM
O=C(Nc1ccc(-c2cc(-c3ccccc3Cl)no2)cc1)C(Cl)Cl [Compound 55, 2,2-Dichloro-N-[4-[3-(2-chlorophenyl)-5-isoxazolyl]phenyl]Acetamide] | ≤ 10 µM
O=C(Nc1ccc(-c2cc(-c3c(F)cccc3F)no2)cc1)C(Cl)Cl [Compound 59, 2,2-Dichloro-N-[4-[3-(2,6-difluorophenyl)-5-isoxazolyl]phenyl]Acetamide] | ≤ 10 µM
